Assay results taken from patent publication US10274488B2, “Glycan arrays on PTFE-like aluminum coated glass slides and related methods” (Academia Sinica, priority 2008, dated 2019).

Key:
cellulase from T. reesei = assay: Enzymatic hydrolysis on the PTFE-like ACG slide with cellulase from T. reesei, MS-TOF readout; assay type: biochemical, Trichoderma reesei; conditions: reaction on the ACG slide, pH 5
Procedure: (§1) Enzymatic hydrolysis of the immobilized poly-fluorinated cellobiose 8 (see FIG. 14) was first conducted in situ on the phosphonic acid slide surface. Three commercially available cellulases, Aspergillus niger (A. niger), Trichoderma reesei (T. reesei), and Trichoderma viride (T. viride) were prepared separately at 5 U/mL in a sodium acetate (25 mM) buffer solution (pH 5) and loaded onto the functionalized slide which has been divided into 16 wells using Fast Frame reaction chambers. For comparison, an aliquot of enzyme solution (100 μL) was added to the solution of fluorinated cellobiose (100 μL of 0.5 mM) in eppendorfs to carry out the enzymatic hydrolysis reactions in solution. After the reaction, it was transferred to the empty wells of the same slide. Each well was rinsed separately three times with de-ionized water and the slide was dried again under high vacuum before subjecting to MS-TOF analysis.
(§2) Under MS-TOF analysis, the clean background baseline allowed calculation of the percentage of hydrolyzed components for each sample. As shown in the MS-TOF results in FIG. 20, percentages of hydrolyzed products are calculated from the peak intensities of each spectrum. According to implementations of experimental data shown in FIG. 20, MS-TOF data of enzymatic hydrolysis of poly-fluorinated cellobiose in solution in FIG. 20A and immobilized on PTFE-like ACG slide in FIG. 20B. The control are the same experimental conditions run without enzymes in (a); (b), (c), and (d) are experimental conditions with the cellulase proteins from A. niger (b), T. reesei (c), and T. viride (d).
(§3) Cellulase was prepared (5 U/mL in 25 mM pH 5.05 NaOAc buffer solution). Substrate was also dissolved in NaOAc buffer solution (25 mM, pH 5.05) to give 0.5 mM substrate solution. Add 50 μL cellulase solution to 50 μL substrate solution onto the glass slide which was loaded in FAST® Frame multi-slide plate to have a 2.5 U/mL cellulase solution with 0.25 mM substrate. The well of the plate was sealed and the whole assembly was incubated in 37° C. for 18 hours. Put the slide in dry box to remove the water, and then use high vacuum to remove trace water. 100 uL water was used to rinse each well of the FAST® Frame multi-slide plate to solve and remove the salt of the buffer solution. Remove any residual water on the plate by high vacuum and then analyzed the slide by MALDI-TOF Ultra-Flex II.

cellulase from A. niger [1] = assay: Enzymatic hydrolysis on the PTFE-like ACG slide with cellulase from A. niger, MS-TOF readout; assay type: biochemical, Aspergillus niger; conditions: reaction on the ACG slide
Procedure: as §1, §2, §3

cellulase from T. viride [2] = assay: Enzymatic hydrolysis on the PTFE-like ACG slide with cellulase from T. viride, MS-TOF readout; assay type: biochemical, Trichoderma viride; conditions: reaction on the ACG slide, pH 5
Procedure: as §1, §2, §3

cellulase from A. niger [3] = assay: Enzymatic hydrolysis in solution with cellulase from A. niger, MS-TOF readout; assay type: biochemical, Aspergillus niger; conditions: reaction in solution
Procedure: as §1, §2
(§4) Cellulase was prepared (5 U/mL in 25 mM pH 5.05 NaOAc buffer solution). Substrate was also dissolved in NaOAc buffer solution (25 mM, pH 5.05) to give 0.5 mM substrate solution. Add 100 uL cellulase solution to 100 uL substrate solution in eppendorf to have a 2.5 U/mL cellulase solution with 0.25 mM substrate. This solution was incubated in 37° C. for 18 hours. Add 100 μL incubated solution onto the slide loaded in FAST® Frame. Put the slide in dry box to remove the water, and then use high vacuum to remove trace water. 100 μL water was used to rinse each well of the FAST® Frame multi-slide plate to solve and remove the salt of the buffer solution. Remove any residual water on the plate by high vacuum and then analyzed the slide by MALDI-TOF Ultra-Flex II.

cellulase from T. viride [4] = assay: Enzymatic hydrolysis in solution with cellulase from T. viride, MS-TOF readout; assay type: biochemical, Trichoderma viride; conditions: reaction in solution, pH 5
Procedure: as §1, §2, §4

## O=C(NCCCCCO[C@@H]1O[C@H](CO)[C@@H](O[C@@H]2O[C@H](CO)[C@@H](O)[C@H](O)[C@H]2O)[C@H](O)[C@H]1O)OCCCC(F)(F)C(F)(F)C(F)(F)C(F)(F)C(F)(F)C(F)(F)C(F)(F)C(F)(F)F [Compound 8, [(4,4,5,5,6,6,7,7,8,8,9,9,10,10,11,11,12,12,12-nonadecafluorododecoxycarbonyl-amino)pentyl] ß-D-cellobioside]
Cellulase from T. reesei
  Biose (un-hydrolyzed cellobiose), percentage of hydrolyzed pattern: 69%
  F-tail, percentage of hydrolyzed pattern: 7%
  Glucose, percentage of hydrolyzed pattern: 25%
  Triose, percentage of hydrolyzed pattern: 0/0%
Cellulase from A. niger [1]; pH 5
  Biose (un-hydrolyzed cellobiose), percentage of hydrolyzed pattern: 1%
  F-tail, percentage of hydrolyzed pattern: 0/0%
  Glucose, percentage of hydrolyzed pattern: 0%
  Triose, percentage of hydrolyzed pattern: 0%
Cellulase from A. niger [1]; pH 5, listed as cellobiose
  Biose (un-hydrolyzed cellobiose), percentage of hydrolyzed pattern: 100%
Cellulase from T. viride [2]
  Biose (un-hydrolyzed cellobiose), percentage of hydrolyzed pattern: 77%
  F-tail, percentage of hydrolyzed pattern: 6%
  Glucose, percentage of hydrolyzed pattern: 17%
  Triose, percentage of hydrolyzed pattern: 0/0%
Cellulase from A. niger [3]; A. niger cellulase, pH 5
  Biose (un-hydrolyzed cellobiose), percentage of hydrolyzed pattern: 64%
  F-tail, percentage of hydrolyzed pattern: 0/0%
  Glucose, percentage of hydrolyzed pattern: 18%
  Triose, percentage of hydrolyzed pattern: 18%
Cellulase from A. niger [3]; A. niger cellulase, pH 5, listed as cellobiose
  Triose, percentage of hydrolyzed pattern: 8%
Cellulase from A. niger [3]
  Hydrolysis of the substrate by the enzyme from A. niger, one glucose unit at a time (in words): very slow reaction rate
Cellulase from T. viride [4]
  Biose (un-hydrolyzed cellobiose), percentage of hydrolyzed pattern: 3%
  F-tail, percentage of hydrolyzed pattern: 38%
  Glucose, percentage of hydrolyzed pattern: 58%
  Triose, percentage of hydrolyzed pattern: 0/0%

## O=C(NCCCCCO[C@@H]1O[C@H](CO)[C@@H](O[C@@H]2O[C@H](CO)[C@@H](O[C@@H]3O[C@H](CO)[C@@H](O)[C@H](O)[C@H]3O)[C@H](O)[C@H]2O)[C@H](O)[C@H]1O)OCCCC(F)(F)C(F)(F)C(F)(F)C(F)(F)C(F)(F)C(F)(F)C(F)(F)C(F)(F)C(F)(F)F [Compound 9, [(4,4,5,5,6,6,7,7,8,8,9,9,10,10,11,11,12,12,12-nonadecafluorododecoxycarbonyl-amino)pentyl] ß-D-glucopyranosyl-(1→4)-ß-D-glucopyranosyl-(1→4)- -ß-D-glucopyranoside]
Cellulase from A. niger [3]
  Hydrolysis of the substrate by the enzyme from A. niger, one glucose unit at a time (in words): very slow reaction rate
